In brackets after ≈: the same amount, converted by molar mass. Several values for one entry are separate records, joined by “and”; a condition that tells them apart may be missing. Identical values can stand only once. Like-named read-outs stand apart in the source and are kept apart here. Non-standard residues stand in square brackets, D forms with d. Residues, ends and D or L forms follow the SMILES beside them. Aib = CC(C)(N)C(=O)O

These results are taken from patent US20260007717A1, “ANTIMICROBIAL PEPTIDE COMPOUNDS AND METHODS OF USE” (priority 2022, published 2026).

The test system of data set [1] is A. baumannii YQ4. How it is done:
The checkerboard method was performed to determine the fractional inhibitory concentration (FIC) index between COG1410 and other antimicrobials. Two-fold serial dilutions of antimicrobials and COG1410 were conducted and mixed in the 96-well plate. […] The experiments were conducted twice independently.

The subject of data set [2] is Streptococcus pneumoniae, methicillin-sensitive Staphylococcus aureus, MRSA, Klebsiella pneumoniae and Pseudomonas aeruginosa. It is filed as cell-based.
The next data set relates to A. baumannii YQ4 biofilm. In words: Static biofilm inhibition, crystal violet. It is filed as cell-based, Acinetobacter baumannii.
The test system of data set [3] is A. baumannii YQ4 preformed biofilm. In words: Biofilm eradication assay, crystal violet. It is filed as cell-based, Acinetobacter baumannii. Particulars: 24 h.
Procedure: Biofilm eradication assay was performed as described previously [24]. A. baumannii YQ4 culture at log phase was diluted into fresh LB broth to OD600 0.01 and 200 μl per well dispensed into a 96-well PVC plate. Plates were incubated at 37° C. for 48 h and washed with PBS for three times. Serial dilutions of COG1410 (0.5-128 μg/mL) were prepared using the same media and were dispensed with 200 μl into each well. Each concentration was determined in 8 wells. LB without COG1410 was used as untreated control. After incubation for another 24 h, the remaining biofilm was quantified as described above. The experiments were performed in triplicate.
Data set [4] relates to A. baumannii YQ4. In words: ROS detection with DCFH-DA probe. It is filed as cell-based, Acinetobacter baumannii.
Data set [5] has as its system A. baumannii YQ4. The data set is described as follows: Nematode killing assay (infection model). Particulars: NGM plate; 16 μg/ml COG1410 alone or 2 μg/ml COG1410 plus 1 μg/ml polymyxin B.
The next data set has as its system PDR A. baumannii YQ4. The data set is described as follows: Dynamic time-kill assay in PBS.
The test system of data set [6] is normal human hepatic L02 cells. The data set is described as follows: Cytotoxicity, CCK8 assay. Particulars: 24 h. Background: Tetrazolium dyes change colour on reduction, which living cells bring about.
Procedure: The cytotoxicity of COG1410 on normal liver cell L02 was assessed by Cell Counting Kit 8 (Solarbio, CA1210) according to the manufacturer's manual. Briefly, 100 μl human hepatic L02 cells were seeded in the 96-well plate with 4×10^3 cells per well in RPMI-1640 medium containing 20% FBS, and incubated at 37° C. in a 5% CO2 atmosphere for 24 h. The cells without exposure to peptide were used as negative control. Then, the L02 cells were incubated with different concentrations of COG1410 for another 24 h. 10 μl CCK8 solution was added to each well. After 2 h incubation, the optical absorbance at 450 nm was measured with BioTek synergy H1 plate reader. […] The experiments were done in triplicate.
The subject of the next data set is A. baumannii. The data set is described as follows: Bactericidal efficacy in PBS, LB broth and saline. The class given is cell-based, Acinetobacter baumannii. The following applies: 1×MIC, 2 h.
The test system of data set [7] is A. baumannii ATCC19606 and LPS-modified strains pmrAP102R and pmrAP102RmiaAI221V. The data set is described as follows: MIC on wild-type and LPS-modified strains. The following applies: LB broth. The class given is cell-based, Acinetobacter baumannii.
Procedure: MIC was determined against A. baumannii wild-type strain ATCC19606 and the corresponding LPS-defective mutants with pmrAP102R and pmrAP102RmiaAI221V mutation in LB broth.
For data set [8] the following is noted: single intravenous injection; cited from earlier work.
Another data set concerns A. baumanii YQ4. In words: Induction of resistance through serial passage. Particulars: after 55 passages at sub-MIC.
Data set [9] deals with A. baumannii YQ4. In words: Bactericidal efficacy (LC99.9) in PBS with or without 50% human plasma. It is filed as cell-based, Acinetobacter baumannii. Particulars: 2 h, listed as COG1410. How it is done: Antibacterial activity in plasma of COG1410 was performed as described previously. […] After incubation with shaking at 200 rpm at 37° C. for 2 hours, the CFUs were counted on LB agar. LC99.9 indicates the lowest peptide concentration that kills ≥99.9% bacteria (ie. a 1000 fold reduction). The experiments were conducted independently for three times.

Data set [10] can be described thus: Stability in 100% human plasma (inhibition zone on A. baumannii YQ4). It is filed as in vitro ADME.
Data set [11] concerns pan-drug resistant (PDR) Acinetobacter baumannii YQ4.
Another data set has as its system P. gingivalis. It is filed as cell-based. Particulars: anaerobic BHI broth. As for the experimental part: Briefly, P. gingivalis is grown under anaerobic conditions to mid-log phase as per Dominy et al. […] The microtiter plate method outlined by Jansen (ibid) was used to measure MICs. Compounds and bacteria are added to wells of a microtiter plate and grown anaerobically (P. gingivalis) or with CO2 (L. salivarius) for 24 to 72 hours. Growth is measured with light scattering at 592 nm on a plate reader and absorbance plotted against μg/ml of drug in each well.

Data set [12] deals with A. baumannii YQ4. The data set is described as follows: ATP leakage assay. It is filed as cell-based, Acinetobacter baumannii. The following applies: 1×MIC, 30 min.
Procedure: ATP leakage assay was performed using the Enhanced ATP Assay Kit of Beyotime (S0027) according to the manufacturer's manual. Briefly, the log-phase culture of A. baumannii YQ4 was prepared, washed and suspended in PBS as above. This suspension was exposed to 16 μg/ml COG1410, 16 μg/ml polymyxin B and 32 μg/ml tigecycline, respectively and incubated at 37° C. for 30 min. The supernatant was harvested and used for measurement of ATP levels. 100 μl of supernatant was mixed with 100 μl working solution and the chemiluminescence was measured by Biotek Synergy H1 plate reader. Untreated sample was set as negative control. The experiments were performed in triplicate.
For data set [13], the system named is pan-drug resistant (PDR) Acinetobacter baumannii YQ4. In words: microbe, parasite or virus in culture.

Procedure for A. baumanii YQ4: The initial concentration of the tested compounds was set up as 1/32×MIC and doubled every 10 passages. The 1 ml of bacterial culture was stored in 10% sterile glycerol at −80° C. every 5 passages. The MIC value of collected cultures and original strains were measured through the micro-dilution method.
Procedure for A. baumannii YQ4 biofilm: 200 μl culture was seeded in each cell of the 96-well PVC plate with OD600 0.01 (ca. 1×10^6 CFU/ml), which was exposed to different COG1410 solution with the final concentrations ranging from 0.5 to 128 μg/ml. Each concentration was determined in 8 wells. After incubation 37° C. for 48 h, the planktonic bacteria were removed by washing three times with sterilized water, followed by fixing in methanol for 15 min and staining with 0.1% crystal violet (CV) for 15 min. Excess CV was washed off and the bound CV was eluted from the biofilm into 150 μl of 95% ethanol and quantitated spectrophotometrically at 600 nm using a Biotek Synergy H1 plate reader. The experiments were performed in triplicate.
Procedure for PDR A. baumannii YQ4: For dynamic time-kill assay, the overnight culture of A. baumannii YQ4 was transferred to fresh broth with initial OD600 0.01 and grown to the logarithmic phase. 1 ml culture was harvested, washed twice with 1× phosphate-buffered saline (PBS, pH7.4), containing 8 mM NaH2PO4, 2 mM KH2PO4, 2.6 mM KCl, 136 mM NaCl), and finally suspended in 1 ml PBS with OD600 0.5, which approximately corresponds to 1×10^8 CFU/ml. […] 100 μl aliquot was respectively taken at 0, 5, 10 and 30 min, serially diluted in PBS and plated on LB agar. The CFUs were counted after incubation at 37° C. for 18 h. […] Three independent experiments were performed.
Procedure for human erythrocytes: The anti-coagulated (citrate) whole blood was pelleted by centrifugation at 700 g for 8 min, washed three times with PBS, and suspended to 0.5% (vol/vol) in PBS. […] The highest concentration was 512 μg/ml (363 μM). PBS and Triton X-100 (0.1%) were used as negative and positive controls, respectively. The plate was incubated at 37° C. for 1 h, followed by centrifuge at 1,000 rpm for 5 min at 4° C. 60 μl aliquots of the supernatant from each well were quickly transferred to a new flat-bottom 96-well plate. The optical absorbance at OD414 was measured with a microplate reader (BioTek, synergy H1). The hemolysis percentage was then normalized with respect to the averaged negative (0%) and positive (100%) controls. Three independent experiments were conducted.

Turning to `CC(=O)N[C@@H](C)C(=O)N[C@@H](CO)C(=O)NC(C)(C)C(=O)N[C@@H](CC(C)C)C(=O)N[C@@H](CCCNC(=N)N)C(=O)N[C@@H](CCCCN)C(=O)N[C@@H](CC(C)C)C(=O)NC(C)(C)C(=O)N[C@@H](CCCCN)C(=O)N[C@@H](CCCNC(=N)N)C(=O)N[C@@H](CC(C)C)C(=O)N[C@@H](CC(C)C)C(N)=O` [SEQ ID NO: 1, acetyl-AS-aib-LRKL-aib-KRLL-amide] (Ac-AS[Aib]LRKL[Aib]KRLL-NH2), the “working concentration in the combination” value in the data set with A. baumannii YQ4 [1] (COG1410 combined with polymyxin B) was 2 µg/mL. The FIC is reported as 0.31 in the data set on A. baumannii YQ4 [1] (in combination with Ceftazidime), 0.13 in the data set with A. baumannii YQ4 [1] (in combination with polymyxin B) and 0.31 with A. baumannii YQ4 [1] (in combination with tetracycline). Besides, the antimicrobial activity entry in [2] is “inactive”. Also, the biofilm formation entry in the data set with A. baumannii YQ4 biofilm (0.5×MIC, 48 h) is reported as “significantly reduced biofilm formation”. Moreover, the “biofilm mass reduced, compared with untreated controls” value in the data set on A. baumannii YQ4 biofilm (1×MIC) was 55%. For the same compound, the mature biofilm dispersed entry in data set [3] (1×MIC) is reported as “ca. 46%”. The biofilm eradicated result in data set [3] (4×MIC) is “more than 88%”. In addition, in the data set on A. baumannii YQ4 [4] (16 μg/ml), the ROS production entry is “significantly increased ROS production”. Moreover, the “more ROS detected after treatment” value in the data set with A. baumannii YQ4 [4] (treatment for 20 min) is recorded as 30%. In the data set with A. baumannii YQ4 [5], the “survival of pre-infected nematodes” value is reported as “alleviated the death of infected nematodes, but the change was not statistically significantly”. For the same compound, in the data set on PDR A. baumannii YQ4 (1×MIC, 30 min), the “reduction in CFU” value worked out at 6 log. Also, in the data set on PDR A. baumannii YQ4 (1×MIC, within 5 min), the “decrease of CFU” value is reported as about 3 logs. In addition, in the data set on PDR A. baumannii YQ4 (5×MIC, within 5 min), the “killing of inoculum (1×10^8 CFU/ml)” value is recorded as “completely eliminated”. Moreover, the “half-maximal (EC50) toxicity concentration” value in data set [6] is 58.9 µg/mL. The bactericidal efficacy entry with A. baumannii is given as “near elimination”. Moreover, the “effect of lipidA modification of LPS on antimicrobial efficacy” value in data set [7] is “did not change the antimicrobial efficacy”. Also, the “EC50 (half of the red blood cells lysed)” value in the data set on human erythrocytes (1 h) turned out to be 441 µg/mL. The hemolysis result in the data set on human erythrocytes (red cells of human, 128 μg/ml) is listed as “less than 5%”. Further, the functional outcome in [8] is “significantly improved vestibulomotor function and spatial learning and memory”. In the data set with A. baumanii YQ4, the “increase of MIC” value was determined as 4 fold. In addition, the LC99.9 with A. baumannii YQ4 [9] (PBS with 50% human plasma) was 8 μg/ml and 5.6 μM; in the data set with A. baumannii YQ4 [9] (PBS), 2 μg/ml and 1.4 μM. In addition, in data set [10] (37° C., first 2 h), the inhibition diameters result is reported as “did not significantly change”. In addition, in data set [10] (4 h), the activity reduced was found to be 6.8%. In addition, in data set [10] (10 h), the activity lost stood at 20%. The activity retained entry in data set [10] (after 10 h) is reported as “more than 80%”. Further, the MIC in data set [11] (A. baumannii YQ4) was determined as 11.3 µM; in data set [11] (A. baumannii YQ4, LB broth), 16 µg/mL. The “minimal bactericidal concentration (MBC)” value in [11] (A. baumannii YQ4, listed as COG1410) was 16 μg/ml and 11.3 μM. Also, the “MIC P. gingivalis” value with P. gingivalis was 16 to 64 µg/mL. Further, in the data set on A. baumannii YQ4 [12], the ATP leakage result was “significantly more than untreated controls and the tigecycline treatment group”.

For the compound `CN(C)c1cc(NC(=O)CNC(C)(C)C)c(O)c2c1C[C@H]1C[C@H]3[C@H](N(C)C)C(O)=C(C(N)=O)C(=O)[C@@]3(O)C(O)=C1C2=O` [tigecycline], the MIC in data set [13] stood at 32 µg/mL (≈ 54.6 µM).
